US5672715A, “Herbicidal substituted 3-aryl-pyrazoles” (Monsanto Company, priority 1995, dated 1997)

Experiments:
Assay type in all cases: in vivo
Barnyardgrass = test: pre-emergence herbicide test; conditions: Echinochloa crus-galli, pre-emergence, read-out: % plant inhibition; for inhibition at 7.95803 g/ha: 0.0071 lb/A; for inhibition at 40.0143 g/ha: 0.0357 lb/A; for inhibition at 200.072 g/ha: 0.1785 lb/A; for inhibition at 1000.92 g/ha: 0.893 lb/A
In short: (§1)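 Sown seeds covered with dosed topsoil; carrier acetone or water; greenhouse, watered from below, optional 1/4 in overhead irrigation post-treatment; % inhibition at ~14 d.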

Broadleaf Signalgrass = test: pre-emergence herbicide test; conditions: Urochloa platyphylla, 0.25 lb/A, read-out: % plant inhibition
In short: as §1

Cocklebur = test: pre-emergence herbicide test; conditions: Xanthium strumarium, pre-emergence, read-out: % plant inhibition; for inhibition at 40.0143 g/ha: 0.0357 lb/A; for inhibition at 200.072 g/ha: 0.1785 lb/A; for inhibition at 280.212 g/ha: 0.25 lb/A; for inhibition at 1000.92 g/ha: 0.893 lb/A
In short: as §1

Corn = test: pre-emergence herbicide test; conditions: for inhibition at 7.95803 g/ha: 0.0071 lb/A; for inhibition at 40.0143 g/ha: 0.0357 lb/A; for inhibition at 200.072 g/ha: 0.1785 lb/A; for inhibition at 1000.92 g/ha: 0.893 lb/A
In short: as §1

Giant Foxtail = test: pre-emergence herbicide test; conditions: Setaria faberi, pre-emergence, 0.25 lb/A; read-out: % plant inhibition
In short: as §1

Rice = test: pre-emergence herbicide test; conditions: Oryza sativa, read-out: % plant inhibition; for inhibition at 7.95803 g/ha: 0.0071 lb/A; for inhibition at 40.0143 g/ha: 0.0357 lb/A; for inhibition at 200.072 g/ha: 0.1785 lb/A; for inhibition at 1000.92 g/ha: 0.893 lb/A
In short: as §1

Seedling Johnsongrass = test: pre-emergence herbicide test; conditions: 0.25 lb/A; for inhibition at 280.212 g/ha: Sorghum halepense, pre-emergence, read-out: % plant inhibition
In short: as §1

Shattercane = test: pre-emergence herbicide test; conditions: 0.25 lb/A, read-out: % plant inhibition
In short: as §1

Soybean = test: pre-emergence herbicide test; conditions: Glycine max, pre-emergence, read-out: % plant inhibition; for inhibition at 7.95803 g/ha: 0.0071 lb/A; for inhibition at 40.0143 g/ha: 0.0357 lb/A; for inhibition at 280.212 g/ha: 0.25 lb/A; for inhibition at 1000.92 g/ha: 0.893 lb/A
In short: as §1

Wild Proso Millet = test: pre-emergence herbicide test; conditions: 0.25 lb/A, read-out: % plant inhibition
In short: as §1

Prickly Sida [1] = test: pre-emergence herbicide test; conditions: 0.25 lb/A, read-out: % plant inhibition
In short: as §1

Black Nightshade = test: post-emergence herbicide test; conditions: Solanum nigrum, 0.25 lb/A, read-out: % plant inhibition
In short: (§2)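 Herbicidal effect measured as percent inhibition of each plant species after spraying. Application: atomizer, 170.3 kPa, 1870 L/Ha, about 0.4% emulsifier, to plants aged two to three weeks in greenhouse soil pans.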

Hemp Sesbania = test: post-emergence herbicide test; conditions: 0.25 lb/A, read-out: % plant inhibition
In short: as §2

Prickly Sida [2] = test: post-emergence herbicide test; conditions: 0.25 lb/A, read-out: % plant inhibition
In short: as §2

Sicklepod = test: post-emergence herbicide test; conditions: Senna obtusifolia, 0.25 lb/A, read-out: % plant inhibition
In short: as §2

[3] = Zea mays, pre-emergence, read-out: % plant inhibition

Structure (SMILES)	inhibition at 7.95803 g/ha (Barnyardgrass) [%]	inhibition at 40.0143 g/ha (Barnyardgrass) [%]	inhibition at 200.072 g/ha (Barnyardgrass) [%]	inhibition at 1000.92 g/ha (Barnyardgrass) [%]	inhibition at 40.0143 g/ha (Cocklebur) [%]	inhibition at 200.072 g/ha (Cocklebur) [%]	inhibition at 280.212 g/ha (Cocklebur) [%]	inhibition at 1000.92 g/ha (Cocklebur) [%]	inhibition at 7.95803 g/ha (Corn; [3]) [%]	inhibition at 40.0143 g/ha (Corn; [3]) [%]	inhibition at 200.072 g/ha (Corn; [3]) [%]	inhibition at 1000.92 g/ha (Corn; [3]) [%]	inhibition at 280.212 g/ha (Giant Foxtail) [%]	inhibition at 7.95803 g/ha (Rice) [%]	inhibition at 40.0143 g/ha (Rice) [%]	inhibition at 200.072 g/ha (Rice) [%]	inhibition at 1000.92 g/ha (Rice) [%]	inhibition at 280.212 g/ha (Seedling Johnsongrass) [%]	inhibition at 7.95803 g/ha (Soybean) [%]	inhibition at 40.0143 g/ha (Soybean) [%]	also measured
COc1cc(-c2nn(C)c(C(F)(F)F)c2C)c(F)cc1Cl [Compound 37]	80	100	100	100	75	80	60	98	25	50	85	100	100	25	0	85	100	100	20	50	inhibition at 280.212 g/ha (Barnyardgrass; 0.25 lb/A): 100%; inhibition at 280.212 g/ha (Broadleaf Signalgrass): 100%; inhibition at 7.95803 g/ha (Cocklebur; 0.0071 lb/A): 100%; % plant inhibition (Corn; 0.25 lb/A): 98%; inhibition at 280.212 g/ha (Corn; Zea mays, pre-emergence, 0.25 lb/A, read-out: % plant inhibition): 95%; inhibition at 280.212 g/ha (Shattercane): 100%; inhibition at 200.072 g/ha (Soybean; 0.1785 lb/A): 50%; inhibition at 280.212 g/ha (Soybean): 35%; inhibition at 1000.92 g/ha (Soybean): 100%; inhibition at 280.212 g/ha (Wild Proso Millet): 100%
Cc1c(-c2cc(OCC(=O)OC(C)C)c(Cl)cc2F)nn(C)c1C(F)(F)F [Compound 38]	0	15	35	70	65	85	70	90	0	0	0	40	20	0	0	0	40	30	0	5	inhibition at 280.212 g/ha (Prickly Sida [1]): 95%; % plant inhibition (Seedling Johnsongrass): 25%; inhibition at 280.212 g/ha (Soybean): 0%; inhibition at 1000.92 g/ha (Soybean): 70%; inhibition at 280.212 g/ha (Black Nightshade): 100%; inhibition at 280.212 g/ha (Hemp Sesbania): 100%; inhibition at 280.212 g/ha (Prickly Sida [2]): 50%; inhibition at 280.212 g/ha (Sicklepod): 20%
